Measured values: the NIST ThermoML archive (doi:10.1016/j.jct.2015.05.024)

Assay: xn = mol fraction of the nth substance listed
Details: 100 kPa, Liquid; for mass density: Vibrating tube method; for speed of sound: Frequency=5 MHz, Pulse-echo method

OCCOCCOCCO [triethylene glycol] + O
Details | mass density [kg/m3] | speed of sound [m/s]
313.15 K, x1 = 0.8975 | 1107.54 | –
313.15 K, x1 = 0.9203 | 1107.65 | –
313.15 K, x1 = 0.9514 | 1107.8 | –
313.15 K, x1 = 0.9692 | 1107.89 | –
313.15 K, x1 = 1 | 1108.03 | –
318.15 K, x1 = 0.000584 | – | 1538.5
318.15 K, x1 = 0.002006 | – | 1542.9
318.15 K, x1 = 0.004375 | – | 1550
318.15 K, x1 = 0.01026 | – | 1566.6
318.15 K, x1 = 0.0107 | 1001.51 | –
318.15 K, x1 = 0.01483 | – | 1578.5
318.15 K, x1 = 0.02047 | 1010.75 | –
318.15 K, x1 = 0.0207 | – | 1592.6
318.15 K, x1 = 0.02817 | – | 1608.6
318.15 K, x1 = 0.0344 | – | 1620.5
318.15 K, x1 = 0.03972 | 1026.32 | –
318.15 K, x1 = 0.04361 | – | 1635.9
318.15 K, x1 = 0.04979 | 1033.27 | –
318.15 K, x1 = 0.05146 | – | 1647.1
318.15 K, x1 = 0.05903 | – | 1656.4
318.15 K, x1 = 0.06571 | – | 1663.4
318.15 K, x1 = 0.06996 | 1045.13 | –
318.15 K, x1 = 0.07299 | – | 1670
318.15 K, x1 = 0.08294 | – | 1677.4
318.15 K, x1 = 0.09126 | – | 1682.2
318.15 K, x1 = 0.09424 | 1056.41 | –
318.15 K, x1 = 0.09661 | – | 1684.8
318.15 K, x1 = 0.1018 | – | 1686.8
318.15 K, x1 = 0.1056 | – | 1688.1
318.15 K, x1 = 0.1135 | – | 1690.2
318.15 K, x1 = 0.1255 | – | 1692.2
318.15 K, x1 = 0.1394 | – | 1692.8
318.15 K, x1 = 0.1396 | – | 1692.8
318.15 K, x1 = 0.1432 | – | 1692.7
318.15 K, x1 = 0.1481 | 1073.27 | –
318.15 K, x1 = 0.1521 | – | 1692.1
318.15 K, x1 = 0.1731 | – | 1689
318.15 K, x1 = 0.1931 | – | 1684.5
318.15 K, x1 = 0.2006 | 1082.92 | –
318.15 K, x1 = 0.2076 | – | 1680.7
318.15 K, x1 = 0.2502 | 1088.64 | –
318.15 K, x1 = 0.2511 | – | 1667.7
318.15 K, x1 = 0.2988 | 1092.38 | –
318.15 K, x1 = 0.3044 | – | 1651.8
318.15 K, x1 = 0.3492 | 1095.09 | –
318.15 K, x1 = 0.3572 | – | 1637.7
318.15 K, x1 = 0.3925 | 1096.8 | –
318.15 K, x1 = 0.4142 | – | 1624.4
318.15 K, x1 = 0.4502 | 1098.53 | –
318.15 K, x1 = 0.4877 | 1099.4 | –
318.15 K, x1 = 0.4989 | – | 1607.6
318.15 K, x1 = 0.5004 | 1099.66 | –
318.15 K, x1 = 0.5739 | 1100.92 | –
318.15 K, x1 = 0.58 | 1101 | –
318.15 K, x1 = 0.6427 | – | 1585.5
318.15 K, x1 = 0.6465 | 1101.82 | –
318.15 K, x1 = 0.651 | 1101.87 | –
318.15 K, x1 = 0.7008 | 1102.35 | –
318.15 K, x1 = 0.7471 | 1102.73 | –
318.15 K, x1 = 0.7677 | 1102.88 | –
318.15 K, x1 = 0.7971 | – | 1571.3
318.15 K, x1 = 0.82 | 1103.22 | –
318.15 K, x1 = 0.8623 | 1103.46 | –
318.15 K, x1 = 0.8792 | 1103.55 | –
318.15 K, x1 = 0.8865 | – | 1565.1
318.15 K, x1 = 0.8975 | 1103.64 | –
318.15 K, x1 = 0.9203 | 1103.76 | –
318.15 K, x1 = 0.9514 | 1103.9 | –
318.15 K, x1 = 0.9641 | – | 1559.6
318.15 K, x1 = 0.9692 | 1103.99 | –
318.15 K, x1 = 1 | 1104.13 | 1554.7
323.15 K, x1 = 0.0107 | 999.177 | –
323.15 K, x1 = 0.02047 | 1008.26 | –
323.15 K, x1 = 0.03972 | 1023.56 | –
323.15 K, x1 = 0.04979 | 1030.37 | –
323.15 K, x1 = 0.06996 | 1041.99 | –
323.15 K, x1 = 0.09424 | 1053.04 | –
323.15 K, x1 = 0.1481 | 1069.57 | –
323.15 K, x1 = 0.2006 | 1079.07 | –
323.15 K, x1 = 0.2502 | 1084.73 | –
